Test results reported in PubChem BioAssay AID248 (DTP/NCI, 2004).
Several values for one entry are separate records, joined by “and”; a condition that tells them apart may be missing. Equal values may be shown once. Toxic doses and inconclusive results are not listed. Cut-off read from the data, not from the text of the source: active = T/C of 150% or more; inactive = T/C below 125%.

Tested on: L1210 leukemia ip in BDF1 mice, survival T/C
Test: NCI In Vivo Anticancer Drug Screen. Data for tumor model L1210 Leukemia (intraperitoneal) in B6D2F1 (BDF1) mice
Details: endpoint: mean survival time, higher = longer survival
How it was run: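 In this screen, tumor-bearing mice given compound are compared to those given vehicle, and their survival values are reported as a treated-to-control quotient.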

[1] = dose: 100.0 mg/kg/injection, schedule: Q01DX009 (ip), vehicle: saline
[2] = dose: 100.0 mg/kg/injection, schedule: Q04DX003 (ip), vehicle: other
[3] = dose: 200.0 mg/kg/injection, schedule: Q04DX003 (ip), vehicle: other
[4] = dose: 25.0 mg/kg/injection, schedule: Q01DX009 (ip), vehicle: saline
[5] = dose: 25.0 mg/kg/injection, schedule: Q04DX003 (ip), vehicle: saline
[6] = dose: 50.0 mg/kg/injection, schedule: Q01DX009 (ip), vehicle: saline
[7] = dose: 50.0 mg/kg/injection, schedule: Q04DX003 (ip), vehicle: saline
[8] = dose: 100.0 mg/kg/injection, schedule: Q01DX009 (ip), vehicle: Klucel (hydroxypropylcellulose) (HPC)
[9] = dose: 100.0 mg/kg/injection, schedule: Q04DX003 (ip), vehicle: saline with Tween-80
[10] = dose: 200.0 mg/kg/injection, schedule: Q01DX009 (ip), vehicle: Klucel (hydroxypropylcellulose) (HPC)
[11] = dose: 200.0 mg/kg/injection, schedule: Q04DX003 (ip), vehicle: saline with Tween-80
[12] = dose: 400.0 mg/kg/injection, schedule: Q01DX009 (ip), vehicle: Klucel (hydroxypropylcellulose) (HPC)
[13] = dose: 400.0 mg/kg/injection, schedule: Q04DX003 (ip), vehicle: saline with Tween-80
[14] = dose: 100.0 mg/kg/injection, schedule: Q04DX003 (ip), vehicle: Klucel (hydroxypropylcellulose) (HPC)
[15] = dose: 200.0 mg/kg/injection, schedule: Q04DX003 (ip), vehicle: Klucel (hydroxypropylcellulose) (HPC)
[16] = dose: 400.0 mg/kg/injection, schedule: Q04DX003 (ip), vehicle: Klucel (hydroxypropylcellulose) (HPC)
[17] = dose: 100.0 mg/kg/injection, schedule: Q04DX003 (ip), vehicle: saline
[18] = dose: 75.0 mg/kg/injection, schedule: Q01DX001 (ip), vehicle: other
[19] = dose: 150.0 mg/kg/injection, schedule: Q01DX001 (ip), vehicle: other
[20] = dose: 300.0 mg/kg/injection, schedule: Q01DX001 (ip), vehicle: other
[21] = dose: 100.0 mg/kg/injection, schedule: Q01DX001 (ip), vehicle: other
[22] = dose: 200.0 mg/kg/injection, schedule: Q01DX001 (ip), vehicle: other
[23] = dose: 400.0 mg/kg/injection, schedule: Q01DX001 (ip), vehicle: other

Measured: T/C

O=C(O)c1ccccc1C(=O)c1cccs1
inactive: [1] 94 % of control | [2] 113 % of control | dose: 200.0 mg/kg/injection, schedule: Q01DX009 (ip), vehicle: saline 97 % of control | [3] 105 % of control | dose: 400.0 mg/kg/injection, schedule: Q01DX009 (ip), vehicle: saline 96 % of control | dose: 400.0 mg/kg/injection, schedule: Q04DX003 (ip), vehicle: other 94 % of control

CCN=C(c1ccc(NC(=O)c2ccc(C(=O)Nc3ccc(C(=NCC)N(CC)C(=O)NCCCCl)cc3)cc2)cc1)N(CC)C(=O)NCCCCl
inactive: dose: 0.5 mg/kg/injection, schedule: Q01DX015 (ip), vehicle: methylcellulose (MC) 100 % of control | dose: 1.0 mg/kg/injection, schedule: Q01DX015 (ip), vehicle: methylcellulose (MC) 102 % of control | dose: 2.0 mg/kg/injection, schedule: Q01DX015 (ip), vehicle: methylcellulose (MC) 111 % of control

Nc1ncnc2c1ncn2CCCCCl
inactive: dose: 12.0 mg/kg/injection, schedule: Q04DX003 (ip), vehicle: saline 93 % of control | dose: 12.5 mg/kg/injection, schedule: Q01DX009 (ip), vehicle: saline 119 % of control | [4] 97 % of control | [5] 107 % of control | [6] 106 % of control | [7] 93 % of control

CCCCCOC(=O)CN(CC(=O)OCCCCC)c1ccccc1
inactive: [8] 88 % of control | [9] 101 % of control | [10] 99 % of control | [11] 98 % of control | [12] 91 % of control | [13] 95 % of control

CCCC1(CC(C)CC)C(=O)NC(=O)NC1=O (stereo not given)
inactive: dose: 75.0 mg/kg/injection, schedule: Q01DX001 (ip), vehicle: saline 100 % of control | dose: 150.0 mg/kg/injection, schedule: Q01DX001 (ip), vehicle: saline 96 % of control | dose: 300.0 mg/kg/injection, schedule: Q01DX001 (ip), vehicle: saline 98 % of control

CC(=O)OC(C)C(=O)C(Cl)(Cl)Cl (stereo not given)
inactive: [8] 100 % of control | [14] 96 % of control | [10] 98 % of control | [15] 103 % of control | [12] 91 % of control | [16] 101 % of control

CC1N(C)CCC1(C)CN1c2ccccc2Sc2ccccc21 (stereo not given)
inactive: [17] 108 % of control | dose: 200.0 mg/kg/injection, schedule: Q04DX003 (ip), vehicle: saline 102 % of control

CC1(C)C2CCC1(C)C(CO)C2 (stereo not given)
inactive: [2] 100 % of control | [3] 102 % of control

C#CCOC(C(=O)OC1CCN(C)CC1)(c1ccccc1)c1ccccc1
inactive: [5] 105 % of control | [7] 105 % of control | [17] 97 % of control and 98 % of control

COC(=O)c1cn[nH]c1N=Nc1ccc(N(CCCl)CCCl)cc1
inactive: [18] 109 % of control | [19] 124 % of control | [20] 119 % of control

CN(N)c1ncnc2c1ncn2C1OC(CO)C(O)C1O (stereo not given)
inactive: [9] 114 % of control | [11] 106 % of control | [13] 95 % of control

O=C(O)c1cc(N=C2C=CC(=C(c3ccccc3)c3ccc(Nc4ccc(Cl)c(C(=O)O)c4)cc3)C=C2)ccc1Cl
inactive: [21] 97 % of control | [8] 105 % of control | [22] 100 % of control | [10] 97 % of control | [23] 103 % of control

COC(=O)C1C(C(=O)OC)C1(c1ccccc1)c1ccccc1 (stereo not given)
inactive: dose: 100.0 mg/kg/injection, schedule: Q01DX001 (ip), vehicle: steriod suspending solution 95 % of control | dose: 200.0 mg/kg/injection, schedule: Q01DX001 (ip), vehicle: steriod suspending solution 112 % of control | dose: 400.0 mg/kg/injection, schedule: Q01DX001 (ip), vehicle: steriod suspending solution 95 % of control

Clc1ccc(NC2=NCCO2)cc1Cl
inactive: dose: 44.0 mg/kg/injection, schedule: Q04DX003 (ip), vehicle: saline with Tween-80 101 % of control | dose: 66.0 mg/kg/injection, schedule: Q04DX003 (ip), vehicle: saline with Tween-80 103 % of control | dose: 150.0 mg/kg/injection, schedule: Q04DX003 (ip), vehicle: saline with Tween-80 93 % of control | [11] 92 % of control | [13] 94 % of control

C(=N/N=C/c1cccnc1)/c1cccnc1
inactive: [21] 104 % of control | [22] 110 % of control | [23] 110 % of control

O=C1NC(c2ccccc2)(c2ccccc2)C(=O)N1SC(Cl)(Cl)Cl
inactive: dose: 25.0 mg/kg/injection, schedule: Q04DX002 (ip), vehicle: Klucel (hydroxypropylcellulose) (HPC) 100 % of control | dose: 50.0 mg/kg/injection, schedule: Q04DX002 (ip), vehicle: Klucel (hydroxypropylcellulose) (HPC) 118 % of control

COC(=O)C(C(=O)OC)C(Br)(OC(C)=O)OC(C)=O
inactive: [9] 98 % of control | [11] 100 % of control | [13] 106 % of control

C/C=C/CC1(c2ccccc2)C(=O)NC(=S)NC1=O
inactive: [18] 108 % of control | [19] 107 % of control | [20] 103 % of control

Cc1nc2ccccc2c(Br)c1Br
inactive: dose: 100.0 mg/kg/injection, schedule: Q01DX001 (ip), vehicle: saline 91 % of control | dose: 200.0 mg/kg/injection, schedule: Q01DX001 (ip), vehicle: saline 94 % of control | dose: 400.0 mg/kg/injection, schedule: Q01DX001 (ip), vehicle: saline 96 % of control

C=CCOCC(O)CN(C)C1CCCCC1 (stereo not given)
inactive: [4] 97 % of control | [5] 106 % of control | [6] 98 % of control | [7] 103 % of control | [1] 95 % of control | [17] 100 % of control and 104 % of control

CCOC(=O)C1(C)CCCC1=O (stereo not given)
inactive: dose: 100.0 mg/kg/injection, schedule: Q01DX009 (ip), vehicle: saline sonified 94 % of control | dose: 200.0 mg/kg/injection, schedule: Q01DX009 (ip), vehicle: saline sonified 97 % of control | dose: 400.0 mg/kg/injection, schedule: Q01DX009 (ip), vehicle: saline sonified 95 % of control

O=C(NCCc1ccc(S(=O)(=O)Nc2ccc(N=Nc3ccc(N=Nc4ccccc4)cc3)cc2)cc1)C(N1CC1)(N1CC1)N1CC1
inactive: dose: 15.0 mg/kg/injection, schedule: Q01DX001 (ip), vehicle: saline 104 % of control | dose: 30.0 mg/kg/injection, schedule: Q01DX001 (ip), vehicle: saline 106 % of control

CC(=O)Nc1nc(C)c(CCCOc2ccc([N+](=O)[O-])cc2)c(Cl)n1
inactive: dose: 100.0 mg/kg/injection, schedule: Q01DX001 (ip), vehicle: Klucel (hydroxypropylcellulose) (HPC) 100 % of control | dose: 200.0 mg/kg/injection, schedule: Q01DX001 (ip), vehicle: Klucel (hydroxypropylcellulose) (HPC) 97 % of control | dose: 400.0 mg/kg/injection, schedule: Q01DX001 (ip), vehicle: Klucel (hydroxypropylcellulose) (HPC) 97 % of control

CCCCCCCCCCCCCCCCCCNC(=O)N(CC)c1ccccc1C
inactive: [8] 101 % of control | [14] 93 % of control | [10] 98 % of control | [15] 90 % of control | [12] 101 % of control | [16] 92 % of control
